Measured values taken from US12729192B2, “CDK9 inhibitor and use thereof” (PHARMABLOCK SCIENCES (NANJING), INC., priority 2020, dated 2026).

Key:
[1] = target: CDK9 (Homo sapiens, UniProt P50750); test: CDK9 kinase activity inhibition (ADP-Glo); type: biochemical; conditions: 10 μM ATP, 2 h at room temperature
[2] = target: T1, CDK2 (Homo sapiens, UniProt P24941); test: CDK2 kinase activity inhibition (ADP-Glo); type: biochemical; conditions: 10 μM ATP, 2 h at room temperature
T1 construct: purchased Carna Biosciences, Inc

[3] = target: T2, CDK7 (Homo sapiens, UniProt P50613); test: CDK7 kinase activity inhibition (ADP-Glo); type: biochemical; conditions: 10 μM ATP, 2 h at room temperature
T2 construct: purchased Carna Biosciences, Inc
T2 sequence (P50613 whole entry): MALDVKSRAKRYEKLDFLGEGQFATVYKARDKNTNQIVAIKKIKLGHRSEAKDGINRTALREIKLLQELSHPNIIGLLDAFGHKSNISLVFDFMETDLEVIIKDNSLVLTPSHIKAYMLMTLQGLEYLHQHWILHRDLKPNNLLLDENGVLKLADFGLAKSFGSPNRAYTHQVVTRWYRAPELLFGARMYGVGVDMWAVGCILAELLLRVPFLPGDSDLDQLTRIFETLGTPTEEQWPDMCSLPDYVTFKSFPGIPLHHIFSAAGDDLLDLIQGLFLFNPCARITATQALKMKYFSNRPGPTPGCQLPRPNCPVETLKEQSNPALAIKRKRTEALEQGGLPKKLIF
T2 sequence (P51946 whole entry partner): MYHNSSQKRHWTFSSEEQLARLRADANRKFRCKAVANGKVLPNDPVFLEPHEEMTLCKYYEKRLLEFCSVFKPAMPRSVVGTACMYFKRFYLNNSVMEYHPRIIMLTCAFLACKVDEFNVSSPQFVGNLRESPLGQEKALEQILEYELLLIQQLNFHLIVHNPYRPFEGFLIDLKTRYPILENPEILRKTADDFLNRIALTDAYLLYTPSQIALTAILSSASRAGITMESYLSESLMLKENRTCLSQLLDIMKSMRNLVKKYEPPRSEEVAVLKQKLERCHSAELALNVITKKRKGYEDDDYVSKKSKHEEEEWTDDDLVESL
T2 sequence (P51948 whole entry partner): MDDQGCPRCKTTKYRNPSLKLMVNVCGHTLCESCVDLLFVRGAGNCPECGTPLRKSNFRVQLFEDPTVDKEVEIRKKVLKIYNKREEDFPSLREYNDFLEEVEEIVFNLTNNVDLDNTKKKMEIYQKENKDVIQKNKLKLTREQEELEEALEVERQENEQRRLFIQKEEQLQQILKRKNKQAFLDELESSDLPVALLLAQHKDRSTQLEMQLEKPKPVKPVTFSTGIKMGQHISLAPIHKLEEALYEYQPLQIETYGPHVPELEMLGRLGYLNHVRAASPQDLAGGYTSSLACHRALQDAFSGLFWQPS

[4] = target: T3, CDK1 (Homo sapiens, UniProt P06493); test: CDK1 kinase activity inhibition (ADP-Glo); type: biochemical; conditions: 50 μM ATP, 2 h at room temperature
T3 construct: purchased Carna Biosciences, Inc
T3 sequence (P06493 whole entry): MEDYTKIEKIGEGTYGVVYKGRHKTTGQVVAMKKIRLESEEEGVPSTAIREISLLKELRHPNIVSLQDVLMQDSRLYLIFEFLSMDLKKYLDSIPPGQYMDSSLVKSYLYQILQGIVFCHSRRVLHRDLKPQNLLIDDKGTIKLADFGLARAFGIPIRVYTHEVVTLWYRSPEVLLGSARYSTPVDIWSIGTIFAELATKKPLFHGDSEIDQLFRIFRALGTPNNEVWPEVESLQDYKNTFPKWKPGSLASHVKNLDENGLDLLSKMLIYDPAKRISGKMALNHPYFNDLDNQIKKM
T3 sequence (P14635 whole entry partner): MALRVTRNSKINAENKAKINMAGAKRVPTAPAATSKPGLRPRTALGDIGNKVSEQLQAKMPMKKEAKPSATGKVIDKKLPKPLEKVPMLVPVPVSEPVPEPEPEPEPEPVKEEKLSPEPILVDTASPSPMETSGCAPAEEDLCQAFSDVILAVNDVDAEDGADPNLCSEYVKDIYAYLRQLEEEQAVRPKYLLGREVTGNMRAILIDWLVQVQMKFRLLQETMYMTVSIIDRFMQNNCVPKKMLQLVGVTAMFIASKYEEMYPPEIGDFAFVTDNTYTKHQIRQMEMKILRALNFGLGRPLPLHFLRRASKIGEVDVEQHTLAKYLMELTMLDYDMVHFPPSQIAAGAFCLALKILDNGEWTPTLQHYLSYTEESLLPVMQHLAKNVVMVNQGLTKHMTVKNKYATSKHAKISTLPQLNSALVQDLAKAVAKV
Description: CDK9 kinase was manufactured by the company or commercially available. CDK1, CDK2 and CDK7 were purchased from Carna Biosciences, Inc. ADP-Glo™ kit was purchased from Promega Corporation. Dithiothreitol (DTT), Tween-20, dimethylsulfoxide (DMSO), bovine serum albumin (BSA) and Tris base were obtained from Sigma at the available highest level of purity.
General procedures for CDK inhibition determination: The determination was performed in a buffer consisting of 50 μM DTT, 0.1% BSA, 40 mM Tris-HCl pH=7.5 and 20 mM MgCl2. The compound dissolved in DMSO and CDK enzymes were diluted with the buffer. 1 μL of the compound solution in 5% DMSO and 2 μL of the CDK enzyme solution were added to a white low-volume 384-well microtiter plate and incubated for 20 min at room temperature. Ultra pure ATP and the substrate polypeptide (purchased from GenScript Biotech Corporation) were diluted together into the buffer and added to a mixed solution of the compound and the enzyme, 2 μL per well. They were incubated for 2 h at room temperature.
After the reaction was completed, 5 μL of ADP-Glo™ reagent was added to each well and incubated for 40 min at room temperature, and then 10 μL of test reagent was added to each well and incubated for 30 mi at room temperature. Chemical luminescence values were measured by using a Tecan (Männedorf, Switzerland) multifunctional plate reader Spark for plate reading. The IC50 value of the inhibitor was obtained by fitting the chemical luminescence intensity ratio in the S-shaped dosage reaction curve using Prism 7 (La Jolla, 15 CA) relative to the concentration of the inhibitor.

[5] = tested on: MOLM-13 cells; test: Tumor cell proliferation inhibition experiment (CellTiter-Glo); type: cell-based; conditions: Homo sapiens; acute myeloid leukemia cell line MOLM-13; 16 h incubation; CellTiter-Glo; read-out: MOLM-13 (nM) IC50, cell proliferation inhibition
Text: An acute myeloid leukemia (AML) cell line (MOLM-13) was purchased from NANJING COBIOER BIOSCIENCES CO., LTD. An RPMI1640 medium and a penicillin-streptomycin double-antibody were purchased from ThermoFisher (Waltham, MA, USA). Certified fetal bovine serum (FBS) was purchased from Biological Industries (Israel). A Corning 384-well cell culture plate was purchased from CORNING (USA). Cell-Titer Glo® was purchased from Promega Corporation (Madison, WI, USA).
To evaluate the ability of the synthetic compound to inhibit the proliferation of MOLM-13 cells, MOLM-13 cells at an exponential growth stage were inoculated at a density of 500,000 cell/mL in the RPMI1640 medium containing 20% bovine serum and 1% penicillin-streptomycin double-antibody, and the 384-well plate contained 20 μL per well and placed overnight in an 37° C., 5% CO2 incubator. Compound powder was dissolved in DMSO to prepare a storage mother liquor with a concentration of 2 mM, and 12 dilutions with three-fold gradient concentrations were further prepared. 1 μL of gradient-diluted DMSO solution was added to 99 μL of cell culture medium (the final maximum concentration of the compound in the assay was 10 uM and the final concentration of DMSO was 0.5%). 20 μL of compound solution in the medium was added at gradients to each cell-coated test well of the 384-well plate. After the compound solution was added, the 384-well plate was incubated for 16 h in a 37° C., 5% CO2 incubator. Cell viability was determined by quantifying ATPs present in test wells using the CellTiter-Glo kit from Promega (Madison, WI, USA). After 20 minutes of incubation, readings were obtained under a chemical luminescence procedure using Tecan's Spark multifunctional plate reader. The concentration (IC50 value) of the compound at which the cell survival rate was inhibited by 50% was determined using an S-shaped dosage response model (variable slope, four parameters) in Prism 7 (LaJolla, CA).

CDK9, sequence (P50750 whole entry): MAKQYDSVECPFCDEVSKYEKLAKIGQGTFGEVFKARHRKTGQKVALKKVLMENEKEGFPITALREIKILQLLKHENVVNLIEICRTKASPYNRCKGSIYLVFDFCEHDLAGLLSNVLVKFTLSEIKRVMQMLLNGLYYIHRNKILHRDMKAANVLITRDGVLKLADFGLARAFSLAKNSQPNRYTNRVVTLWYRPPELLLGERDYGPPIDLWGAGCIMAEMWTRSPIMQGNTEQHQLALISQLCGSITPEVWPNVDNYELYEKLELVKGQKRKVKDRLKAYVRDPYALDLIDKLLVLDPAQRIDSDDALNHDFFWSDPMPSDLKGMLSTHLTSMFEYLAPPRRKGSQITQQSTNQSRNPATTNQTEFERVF
CDK9, sequence (O60563 whole entry partner): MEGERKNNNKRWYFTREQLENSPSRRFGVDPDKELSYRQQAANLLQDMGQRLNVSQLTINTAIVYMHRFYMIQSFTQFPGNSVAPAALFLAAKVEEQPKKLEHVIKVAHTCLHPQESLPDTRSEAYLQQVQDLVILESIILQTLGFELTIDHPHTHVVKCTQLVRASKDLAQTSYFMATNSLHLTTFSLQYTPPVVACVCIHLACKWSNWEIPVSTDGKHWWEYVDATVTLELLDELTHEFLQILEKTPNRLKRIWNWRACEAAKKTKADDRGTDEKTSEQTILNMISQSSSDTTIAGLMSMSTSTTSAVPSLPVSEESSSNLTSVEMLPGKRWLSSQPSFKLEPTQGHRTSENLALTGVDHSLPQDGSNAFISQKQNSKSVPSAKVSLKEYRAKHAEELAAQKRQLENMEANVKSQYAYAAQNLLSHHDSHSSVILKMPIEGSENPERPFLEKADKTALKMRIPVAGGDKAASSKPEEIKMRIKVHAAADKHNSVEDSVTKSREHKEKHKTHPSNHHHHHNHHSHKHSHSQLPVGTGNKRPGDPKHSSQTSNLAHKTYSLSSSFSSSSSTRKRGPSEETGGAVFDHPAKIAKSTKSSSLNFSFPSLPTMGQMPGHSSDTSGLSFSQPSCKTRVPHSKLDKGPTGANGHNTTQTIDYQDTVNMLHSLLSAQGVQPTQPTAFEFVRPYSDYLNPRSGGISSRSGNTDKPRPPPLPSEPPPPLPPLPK

| IC50 [1] [nM] | IC50 [2] [nM] | IC50 [3] [nM] | IC50 [4] [nM] | IC50 [5] [nM] | Compound |
| --- | --- | --- | --- | --- | --- |
| 7.1 | 408 | 8760 | > 10000 | 70.9 | CC(=O)NC[C@H]1CCC(F)(F)CN1C(=O)c1nc(Nc2cc(Cl)ccn2)ccc1C [Compound 24, (R)—N-((1-(6-((4-chloropyridin-2-yl)amino)-3-methylpyridine-2-carbonyl)-5,5-difluoropiperidin-2-yl)methyl)acetamide] |
| 5.8 | 144 | 4570 | 426 | 22.1 | CC(=O)NC[C@H]1CCC(F)(F)CN1C(=O)c1nc(Nc2cc(C(F)F)ccn2)ccc1C [Compound 27, (R)—N-((1-(6-((4-(difluoromethyl)pyridin-2-yl)amino)-3-methylpyridine-2-carbonyl)-5,5-difluoropiperidin-2-yl)methyl)acetamide] |
| 11.7 | 99.3 | 3180 | 291 | 11.3 | CC(=O)NC[C@H]1CCC(F)(F)CN1C(=O)c1nc(Nc2cc(C(F)(F)F)ccn2)ccc1C [Compound 30, (R)—N-((5,5-difluoro-1-(3-methyl-6-((4-(trifluoromethyl)pyridin-2-yl)amino)pyridine-2-carbonyl)piperidin-2-yl)methyl)acetamide] |
| 3 | 30 | 479 | 261 | 63.1 | Cc1ccc(Nc2cc(OC(F)(F)F)ccn2)nc1C(=O)N1CC(F)(F)CC[C@@H]1CN [Compound 34, (R)-(2-(aminomethyl)-5,5-difluoropiperidin-1-yl)(3-methyl-6-((4-(trifluoromethoxy)pyridin-2-yl)amino)pyridin-2-yl)methanone] |
| 6.8 | 61.2 | 656 | 140 | 66.8 | NC[C@H]1CCC(F)(F)CN1C(=O)c1nc(Nc2cc(OC(F)(F)F)ccn2)ccc1F [Compound 67, (R)-(2-(aminomethyl)-5,5-difluoropiperidin-1-yl)(3-fluoro-6-((4-(trifluoromethoxy)pyridin-2-yl)amino)pyridin-2-yl)methanone] |
